# Measurements taken from US20220163532A1, “NUCLEAR-DERIVED EXOSOMES AND METHODS OF USE THEREOF” (Board of Regents, The University of Texas System, priority 2019, published 2022).
# Key:
# Type in all cases: cell-based, human
# ovarian cancer cells = assay: Nuclear proteins in exosomes from drug-treated ovarian cancer cells (Western blot); conditions: topotecan 10 nM or olaparib 20 μM
# Procedure: (§1) Isolation of exosomes. The isolation method for exosomes that was used in this study followed the standard methods of the International Society of Extracellular Vesicles (Witwer et al., 2013). Cell lines described above were grown in the corresponding medium described above until 60 to 70% confluence was achieved. Cells were then washed twice with phosphate-buffered saline (PBS) and grown in corresponding medium containing 1% exosome-free FBS (EXO-FBS-250A-1, System Biosciences) plus 0.1% gentamicin for 48 hours. For exosome isolation, the harvested medium underwent serial centrifugation. First, the medium was spun down at 500g for 10 min to pellet any floating cells. Next, the supernatant was collected and spun down at 2000g for 30 min to pellet any residual cell debris. The resulting supernatant was then filtered through a 0.22-μm filter (SCGPUO5RE and SLGP033RS, Millipore-Sigma) to remove any remaining large vesicles. After filtration, the medium was spun down at 40,000 rpm for 2 hours at 4° C. in an ultracentrifuge (Optima XE, Beckman Coulter) with a Ti 45 fixed-angle rotor (339160, Beckman Coulter). […] Exosome concentration and quantity were determined using NTA with a NanoSight NS300 instrument (Malvern Panalytical).
# Western blotting. […] Protein concentration was determined using the Micro BCA Protein Assay Kit (23235, Thermo Fisher Scientific) according to the manufacturer's protocol. […]
# [1] = test system: OVCAR-5 and OVCAR-8 cells; assay: MN quantification in ovarian cancer cells treated with genotoxic drugs (IF, Lamin A/C); conditions: topotecan 10 nM or olaparib 20 μM, vs DMSO
# Procedure: IF experiments and MN quantification. Cells were plated at a density of 5×10^4 cells on sterile, 0.17-mm-thick coverslips (12-548-A, Thermo Fisher Scientific) placed at the bottom of six-well plates. The next day, cells were treated for 24 hours with either vehicle control dimethyl sulfoxide (DMSO; 1:1000 dilution; D2650, Sigma-Aldrich), 20 μM olaparib (O-9201, LC Laboratories), or 10 nM topotecan (T2705-50MG, Sigma-Aldrich). After 24 hours, the cells were washed with PBS and refed with the appropriate cell culture medium to grow for another 48 hours, for a total time of 72 hours after initial plating on the coverslips.
# The drug-treated cells were first washed three times with PBS, fixed with 4% paraformaldehyde (PFA; 50-980-487, Thermo Fisher Scientific) diluted in PBS, and incubated at RT for 15 min with light rocking. […] Last, cells on coverslips were then washed four times with PBS and mounted on slides using ProLong Diamond Antifade Mountant (P36961, Thermo Fisher Scientific) and imaged with a Leica fluorescence microscope (Leica DM4000 M LED; Leica Microsystems) or an Andor Revolution XDi WD Spinning Disk Confocal microscope. For MN quantification, the number of MN in each 40× field was counted using 10 fields per sample. […]
# [2] = test system: OVCAR-5 and OVCAR-8 cells; assay: DNA-positive exosomes (nExo) from drug-treated ovarian cancer cells by imaging flow cytometry; conditions: topotecan 10 nM or olaparib 20 μM, parental cells treated 48 hours, vs DMSO
# Procedure: as §1, with “vesicles.” for “vesicles. After filtration, the medium was spun down at 40,000 rpm for 2 hours at 4° C. in an ultracentrifuge (Optima XE, Beckman Coulter) with a Ti 45 fixed-angle rotor (339160, Beckman Coulter).”
# Exosome staining for imaging flow cytometry and analysis. For quantitative analysis and imaging flow cytometry of exosomes, the method described by Erdbrugger et al. (2014) using an Amnis ImageStreamX MarkII analyzer was adapted. […]
structure (smiles),measurement,setting,value
O=C(c1cc(Cc2n[nH]c(=O)c3ccccc23)ccc1F)N1CCN(C(=O)C2CC2)CC1 [olaparib],population of exosomes containing nuclear proteins,ovarian cancer cells,increased
same,number of MN,[1],increased significantly
same,population of exosomes containing gDNA (proportion of nExo secreted),[2],increased
